Measurements reported in US10473647B1, “Peptides for use in treatment and diagnosis of type 1 diabetes” (ImmusanT, Inc., priority 2014, dated 2019).
No end group written: not given here.

How the values were obtained:
Assay type in all cases: cell-based, human
undepleted whole blood [1] = test: Whole blood cytokine assay, IP-10, undepleted blood, number of subjects with >=1.25 fold over medium (Example 2); settings: 24 h, peptides 20 ug/mL, pools 4 ug/mL, NEX-01/Nexgen POOL 25 uM, CEFT 1 ug/mL
Experimental: (§1) The depleted blood as well as the remaining undepleted whole blood was then utilized in whole blood cytokine release assays. T-cell cytokine responses were assessed for reactivity to pools of 17mer peptides encompassing all unique 12mer amino-acid sequences derived from pancreatic islet antigens commonly recognized by autoantibodies in T1D: insulin, glutamic decarboxylase-65 (GAD65), and insulinoma-associated antigen (IA)-2 as provided in Table 13A and Table 13B.
(§2) Fresh heparinized blood was incubated with peptide. Concentrations of individual islet-autoantigen peptides were 20 μg/mL and constituent peptides in islet-autoantigen pools were 4 ug/mL. Control MHC class II peptide mix CEFT was used at 1 μg/mL. Gliadin peptide pools were added to whole blood assays at 25 μM. Whole blood assays were incubated for 24 h at 37° C. in 5% CO2. Plasma was separated from blood after centrifugation at 500×g for 10 minutes at room temperature and then transferred to a corresponding well in a “mirror image” sterile 96-well plate. and frozen at −80° C. until use. Multiplex bead-based cytokine assays (MAGPix) were performed according to manufacturer's instructions on thawed plasma. Concentrations of interferon (IFN)-γ-induced protein-10 (IP-10), interleukin (IL)-2 and IFN-γ. Table 14 is a summary of the results for the whole blood cytokine assays which expresses the data in the number of subjects that are positive for ≥1.25 fold production of cytokine over cells incubated with medium only (background).

[2] = test system: CD8+ T cell depleted blood; test: Whole blood cytokine assay, IL-2, CD8+ T cell depleted blood (Example 2); settings: T1D Subjects (n of 6), 24 h, peptides 20 ug/mL, pools 4 ug/mL, NEX-01/Nexgen POOL 25 uM, CEFT 1 ug/mL
Experimental: (§3) Depletion of human CD4+ and CD8+ T cells directly from whole blood, using CD4 and CD8 Dynabeads respectively (Dynabeads Human CD4, Life Technologies, #11145D; Dynabeads Human CD8, Life Technologies, #11145D), was done according to the manufacturer's protocol. Briefly, the Dynabeads were resuspended and the desired volume was transferred to a 15 Ml tube. The calculation of the volume of beads added to whole blood was 2×10^6 CD4 beads (25 μL) and 4×10^6 CD8 beads (50 μL) per Ml of whole blood. The beads were first washed with 3 Ml PBS, vortexed and placed on the magnet for 1 minute. Supernatant was discarded and beads were removed from the magnet. Whole blood was then added to the beads at the volume calculated for the concentration of beads in the tubes. The tubes containing whole blood and Dynabeads were then incubated 45 minutes at 4° C. on a continuous rocker.
(§4) Tubes were then placed into the magnet for 2 minutes. The whole blood supernatant was then transferred to a new tube for use in 24-hour Whole Blood Assay or for Flow Cytometric Analysis. Magnetic beads were discarded.
as §1, §2

[3] = test system: CD8+ T cell depleted blood; test: Whole blood cytokine assay, IP-10, CD8+ T cell depleted blood (Example 2); settings: T1D Subjects (n of 6), 24 h, peptides 20 ug/mL, pools 4 ug/mL, NEX-01/Nexgen POOL 25 uM, CEFT 1 ug/mL
Experimental: as §3, §4, §1, §2

[4] = test system: CD8+ T cell depleted blood; test: Whole blood cytokine assay, IFNg, CD8+ T cell depleted blood (Example 2); settings: T1D Subjects (n of 6), 24 h, peptides 20 ug/mL, pools 4 ug/mL, NEX-01/Nexgen POOL 25 uM, CEFT 1 ug/mL
Experimental: as §3, §4, §1, §2

[5] = test system: CD4+ T cell depleted blood; test: Whole blood cytokine assay, IFNg, CD4+ T cell depleted blood (Example 2); settings: T1D Subjects (n of 6), 24 h, peptides 20 ug/mL, pools 4 ug/mL, NEX-01/Nexgen POOL 25 uM, CEFT 1 ug/mL
Experimental: as §3, §4, §1, §2

[6] = test system: CD4+ T cell depleted blood; test: Whole blood cytokine assay, IP-10, CD4+ T cell depleted blood (Example 2); settings: T1D Subjects (n of 6), 24 h, peptides 20 ug/mL, pools 4 ug/mL, NEX-01/Nexgen POOL 25 uM, CEFT 1 ug/mL
Experimental: as §3, §4, §1, §2

undepleted whole blood [7] = test: Whole blood cytokine assay, IL-2, undepleted blood, number of subjects with >=1.25 fold over medium (Example 2); settings: 24 h, peptides 20 ug/mL, pools 4 ug/mL, NEX-01/Nexgen POOL 25 uM, CEFT 1 ug/mL
Experimental: as §1, §2

undepleted whole blood [8] = test: Whole blood cytokine assay, IFNg, undepleted blood, number of subjects with >=1.25 fold over medium (Example 2); settings: 24 h, peptides 20 ug/mL, pools 4 ug/mL, NEX-01/Nexgen POOL 25 uM, CEFT 1 ug/mL
Experimental: as §1, §2

[9] = Healthy Subjects (n of 4), whole blood
[10] = T1D Subjects (n of 6), Undepleted WB

## 20150-01: peptide tested in Example 2 whole blood cytokine assays (Tables 13A/13B, 14) (FYTPKTRREAEDLQGSL)
Undepleted whole blood [1]; [9]
  Fold Change IP-10, number of subjects positive for ≥1.25 fold production of cytokine over medium only: 2/4
Undepleted whole blood [1]; [10]
  Fold Change IP-10, number of subjects positive for ≥1.25 fold production of cytokine over medium only: 4/6
[2]
  Fold Change IL-2, number of subjects positive for ≥1.25 fold production of cytokine over medium only: 1/6

## 20150-05-W1: peptide tested in Example 2 whole blood cytokine assays (Tables 13A/13B, 14) (REAEDLQVGQVELGGGP)
Undepleted whole blood [1]; [9]
  Fold Change IP-10, number of subjects positive for ≥1.25 fold production of cytokine over medium only: 3/4
Undepleted whole blood [1]; [10]
  Fold Change IP-10, number of subjects positive for ≥1.25 fold production of cytokine over medium only: 4/6
[3]
  Fold Change IP-10, number of subjects positive for ≥1.25 fold production of cytokine over medium only: 5/6
[4]
  Fold Change IFNg, number of subjects positive for ≥1.25 fold production of cytokine over medium only: 1/6
[5]
  Fold Change IFNg, number of subjects positive for ≥1.25 fold production of cytokine over medium only: 1/6
[2]
  Fold Change IL-2, number of subjects positive for ≥1.25 fold production of cytokine over medium only: 1/6
[6]
  Fold Change IP-10, number of subjects positive for ≥1.25 fold production of cytokine over medium only: 3/6

## 20150-11-W1 (NQHLCGSHLVEALYLVC)
Undepleted whole blood [1]; [9]
  Fold Change IP-10, number of subjects positive for ≥1.25 fold production of cytokine over medium only: 2/4
Undepleted whole blood [1]; [10]
  Fold Change IP-10, number of subjects positive for ≥1.25 fold production of cytokine over medium only: 2/6
[3]
  Fold Change IP-10, number of subjects positive for ≥1.25 fold production of cytokine over medium only: 2/6
[4]
  Fold Change IFNg, number of subjects positive for ≥1.25 fold production of cytokine over medium only: 1/6
[5]
  Fold Change IFNg, number of subjects positive for ≥1.25 fold production of cytokine over medium only: 1/6
Undepleted whole blood [7]; [10]
  Fold Change IL-2, number of subjects positive for ≥1.25 fold production of cytokine over medium only: 1/6

## 20150-15 (LQGSLQPLALEGSLQKR) [Peptide 20150-15]
[4]
  Fold Change IFNg, number of subjects positive for ≥1.25 fold production of cytokine over medium only: 2/6
[5]
  Fold Change IFNg, number of subjects positive for ≥1.25 fold production of cytokine over medium only: 1/6
[2]
  Fold Change IL-2, number of subjects positive for ≥1.25 fold production of cytokine over medium only: 1/6

## 20150-19 (EDLQVGQVELGGGPGAG-NH2) [Peptide 20150-19]
Undepleted whole blood [1]; [9]
  Fold Change IP-10, number of subjects positive for ≥1.25 fold production of cytokine over medium only: 1/4
Undepleted whole blood [8]; [9]
  Fold Change IFNg, number of subjects positive for ≥1.25 fold production of cytokine over medium only: 1/4
[4]
  Fold Change IFNg, number of subjects positive for ≥1.25 fold production of cytokine over medium only: 3/6
[5]
  Fold Change IFNg, number of subjects positive for ≥1.25 fold production of cytokine over medium only: 2/6
[2]
  Fold Change IL-2, number of subjects positive for ≥1.25 fold production of cytokine over medium only: 1/6

## 20150-24: peptide tested in Example 2 whole blood cytokine assays (Tables 13A/13B, 14) (PLLALLALWGPDPAAAF)
Undepleted whole blood [1]; [9]
  Fold Change IP-10, number of subjects positive for ≥1.25 fold production of cytokine over medium only: 4/4
Undepleted whole blood [1]; [10]
  Fold Change IP-10, number of subjects positive for ≥1.25 fold production of cytokine over medium only: 6/6
Undepleted whole blood [8]; [9]
  Fold Change IFNg, number of subjects positive for ≥1.25 fold production of cytokine over medium only: 1/4
Undepleted whole blood [8]; [10]
  Fold Change IFNg, number of subjects positive for ≥1.25 fold production of cytokine over medium only: 4/6
[3]
  Fold Change IP-10, number of subjects positive for ≥1.25 fold production of cytokine over medium only: 5/6
[4]
  Fold Change IFNg, number of subjects positive for ≥1.25 fold production of cytokine over medium only: 5/6
[5]
  Fold Change IFNg, number of subjects positive for ≥1.25 fold production of cytokine over medium only: 1/6
[2]
  Fold Change IL-2, number of subjects positive for ≥1.25 fold production of cytokine over medium only: 6/6
Undepleted whole blood [7]; [9]
  Fold Change IL-2, number of subjects positive for ≥1.25 fold production of cytokine over medium only: 1/4
Undepleted whole blood [7]; [10]
  Fold Change IL-2, number of subjects positive for ≥1.25 fold production of cytokine over medium only: 4/6
[6]
  Fold Change IP-10, number of subjects positive for ≥1.25 fold production of cytokine over medium only: 3/6
